This is an account of results in PubChem BioAssay AID256 (DTP/NCI, 2004).

The experiment relates to CD2F1 mice, L1210 leukemia ip, survival T/C. Nature of the experiment: NCI In Vivo Anticancer Drug Screen. Data for tumor model L1210 Leukemia (intraperitoneal) in CD2F1 (CDF1) mice. The following applies: higher = longer survival. An outline of the steps: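 Mice carrying a transplanted tumor received test compound or vehicle alone. The value is the measurement in the treated group divided by that in the vehicle-treated control group.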

Setting [1] is: endpoint: mean survival time, dose: 25.0 mg/kg/injection, schedule: Q01DX009 (ip), vehicle: Klucel (hydroxypropylcellulose) (HPC).
Where [2] appears, read: endpoint: mean survival time, dose: 50.0 mg/kg/injection, schedule: Q01DX009 (ip), vehicle: Klucel (hydroxypropylcellulose) (HPC).
Setting [3] is: endpoint: mean survival time, dose: 100.0 mg/kg/injection, schedule: Q01DX009 (ip), vehicle: Klucel (hydroxypropylcellulose) (HPC).
Where [4] appears, read: endpoint: mean survival time, dose: 100.0 mg/kg/injection, schedule: Q04DX003 (ip), vehicle: saline with Tween-80.
Where [5] appears, read: endpoint: mean survival time, dose: 200.0 mg/kg/injection, schedule: Q04DX003 (ip), vehicle: saline with Tween-80.
[6] abbreviates: endpoint: mean survival time, dose: 400.0 mg/kg/injection, schedule: Q04DX003 (ip), vehicle: saline with Tween-80.
The mark [7] stands for this setting: endpoint: mean survival time, dose: 100.0 mg/kg/injection, schedule: Q01DX009 (ip), vehicle: saline with Tween-80.
Where [8] appears, read: endpoint: mean survival time, dose: 200.0 mg/kg/injection, schedule: Q01DX009 (ip), vehicle: saline with Tween-80.
[9] abbreviates: endpoint: mean survival time, dose: 400.0 mg/kg/injection, schedule: Q01DX009 (ip), vehicle: saline with Tween-80.
[10] abbreviates: endpoint: mean survival time, dose: 100.0 mg/kg/injection, schedule: Q04DX002 (ip), vehicle: saline with Tween-80.
Setting [11] is: endpoint: mean survival time, dose: 200.0 mg/kg/injection, schedule: Q04DX002 (ip), vehicle: saline with Tween-80.

Several values for one entry are separate records, joined by “and”; a condition that tells them apart may be missing. Equal values may be shown once. Inconclusive results and toxic doses are left out.

Consider `[Br][Pt+2][Br].[NH-]CC(=O)O.[NH-]CC(=O)O`, for which the T/C runs as follows: under setting [1], 101 % of control; under setting [2], 90 % of control; (endpoint: mean survival time, dose: 50.0 mg/kg/injection, schedule: Q04DX003 (ip), vehicle: Klucel (hydroxypropylcellulose) (HPC)) 96 % of control; under setting [3], 86 % of control; (endpoint: mean survival time, dose: 100.0 mg/kg/injection, schedule: Q04DX003 (ip), vehicle: Klucel (hydroxypropylcellulose) (HPC)) 102 % of control; (endpoint: mean survival time, dose: 200.0 mg/kg/injection, schedule: Q04DX003 (ip), vehicle: Klucel (hydroxypropylcellulose) (HPC)) 95 % of control.
As to `Cc1c2ccccc2c(CSCCC(N)C(=O)O)c2ccccc12` (stereo not drawn), the T/C under setting [4] is 96 % of control, the T/C under setting [5] was 93 % of control and the T/C under setting [6] was 90 % of control.
For the molecule `CCCCCCCCCCCCNC(=O)C[N+](C)(C)Cc1ccc2c(c1)CCCC2`, the T/C is 95 % of control (endpoint: mean survival time, dose: 5.0 mg/kg/injection, schedule: Q04DX003 (ip), vehicle: saline with Tween-80) and 105 % of control (endpoint: mean survival time, dose: 10.0 mg/kg/injection, schedule: Q04DX003 (ip), vehicle: saline with Tween-80).
Consider `Nc1cc(Br)cc(Br)c1`, for which the T/C under setting [4] is 94 % of control, the T/C under setting [5] is 105 % of control and the T/C under setting [6] is 94 % of control.
For the molecule `Cc1sc2ccccc2c2nc3ccccc3c1-2`, the T/C is 106 % of control under setting [7], 104 % of control under setting [8] and 107 % of control under setting [9].
As for `CC1Cc2c([nH]c3ccc(Cl)cc23)CN1` (stereo not drawn), the T/C under setting [10] was 86 % of control and the T/C under setting [11] was 89 % of control.
On to `CCOC(=O)C1=C(C)NC(C)=C(C(=O)OCC)C1c1ccc(OC)cc1`, for which the T/C is 104 % of control under setting [7]; 97 % of control under setting [4]; 101 % of control under setting [8]; 94 % of control under setting [5]; 97 % of control under setting [9]; 92 % of control under setting [6].
As for `O=C(O)CCCCCCCC(=O)O`, the T/C reads like this: (endpoint: median survival time, dose: 6.25 mg/kg/injection, schedule: Q01DX009 (ip), vehicle: distilled water + Tween-80) 101 % of control; (endpoint: median survival time, dose: 12.5 mg/kg/injection, schedule: Q01DX009 (ip), vehicle: distilled water + Tween-80) 95 % of control; (endpoint: median survival time, dose: 25.0 mg/kg/injection, schedule: Q01DX009 (ip), vehicle: distilled water + Tween-80) 101 % of control; (endpoint: median survival time, dose: 50.0 mg/kg/injection, schedule: Q01DX009 (ip), vehicle: distilled water + Tween-80) 89 % of control; (endpoint: median survival time, dose: 100.0 mg/kg/injection, schedule: Q01DX009 (ip), vehicle: distilled water + Tween-80) 97 % of control.
Turning to `O=N[O-].[Co].[N-]=C=S.[NH2-].[NH2-].[NH2-].[NH2-]`, the T/C is, setting by setting: (endpoint: mean survival time, dose: 12.5 mg/kg/injection, schedule: Q01DX009 (ip), vehicle: saline with Tween-80) 115 % of control; (endpoint: mean survival time, dose: 25.0 mg/kg/injection, schedule: Q01DX009 (ip), vehicle: saline with Tween-80) 115 % of control.
Take `O=C(Nc1cc(Cl)cc(Cl)c1)C(F)(F)F`: the T/C (endpoint: mean survival time, dose: 100.0 mg/kg/injection, schedule: Q01DX001 (ip), vehicle: saline) was 107 % of control; the T/C (endpoint: mean survival time, dose: 200.0 mg/kg/injection, schedule: Q01DX001 (ip), vehicle: saline) is 101 % of control; the T/C (endpoint: mean survival time, dose: 400.0 mg/kg/injection, schedule: Q01DX001 (ip), vehicle: saline) is 101 % of control.
Consider `c1ccc2c([Si](O[Si](c3cccc4ccccc34)C3CCCCC3)C3CCCCC3)cccc2c1`, for which the T/C is 100 % of control under setting [7]; 93 % of control under setting [4]; 91 % of control under setting [8]; 91 % of control under setting [5]; 88 % of control under setting [9].
Take `NC(=O)COc1ccc(Br)cc1`: the T/C runs as follows: under setting [10], 102 % of control; under setting [11], 98 % of control.
For `c1ccc(-c2nc3c(c(-c4ccccc4)n2)CCO3)cc1`, the T/C is 95 % of control under setting [7]; 98 % of control under setting [4]; 93 % of control under setting [8]; 100 % of control under setting [5]; 95 % of control under setting [9]; 90 % of control under setting [6].
In the case of `O=C(NC1CCC(NC(=O)N2CC2)CC1)N1CC1` (stereo not drawn), the T/C is 164 % of control (endpoint: mean survival time, dose: 6.75 mg/kg/injection, schedule: Q01DX001 (ip), vehicle: carboxymethylcellulose (CMC)); 185 % of control (endpoint: mean survival time, dose: 10.0 mg/kg/injection, schedule: Q01DX001 (ip), vehicle: carboxymethylcellulose (CMC)); 102 % of control (endpoint: mean survival time, dose: 15.0 mg/kg/injection, schedule: Q01DX001 (ip), vehicle: carboxymethylcellulose (CMC)).
`COc1cc(OC)cc(C(=O)Cl)c1`: the T/C was 98 % of control (endpoint: mean survival time, dose: 100.0 mg/kg/injection, schedule: Q04DX003 (ip), vehicle: saline sonified); 95 % of control (endpoint: mean survival time, dose: 200.0 mg/kg/injection, schedule: Q04DX003 (ip), vehicle: saline sonified); 91 % of control (endpoint: mean survival time, dose: 400.0 mg/kg/injection, schedule: Q04DX003 (ip), vehicle: saline sonified).
`Cn1c2nc3ccccc3c-2nc2ccccc21`: the T/C reads like this: (endpoint: mean survival time, dose: 1.56 mg/kg/injection, schedule: Q01DX009 (ip), vehicle: water) 100 % of control; (endpoint: mean survival time, dose: 3.13 mg/kg/injection, schedule: Q01DX009 (ip), vehicle: water) 93 % of control; (endpoint: mean survival time, dose: 6.25 mg/kg/injection, schedule: Q01DX009 (ip), vehicle: water) 88 % of control; (endpoint: mean survival time, dose: 12.5 mg/kg/injection, schedule: Q01DX009 (ip), vehicle: water) 89 % of control; under setting [1], 101 % of control; (endpoint: mean survival time, dose: 25.0 mg/kg/injection, schedule: Q01DX009 (ip), vehicle: water) 86 % of control and 89 % of control. Moreover, the T/C is, setting by setting: under setting [2], 103 % of control; under setting [3], 105 % of control; (endpoint: mean survival time, dose: 200.0 mg/kg/injection, schedule: Q01DX009 (ip), vehicle: Klucel (hydroxypropylcellulose) (HPC)) 95 % of control.
